Laboratory results taken from ChEMBL document CHEMBL2311327, “Anti-liver fibrotic lignans from the fruits of Schisandra arisanensis and Schisandra sphenanthera” (Bioorg Med Chem Lett, 2013).

Tested on: HSC-T6
Test: Inhibition of NF-kappaB (unknown origin) expressed in TNFalpha-stimulated rat HSC-T6 cells assessed as reduction of HSC activation at 50 ug/ml treated 30 mins before TNFalpha stimulation measured after 6 hrs by bioluminescence based luciferase reporter gene assay relative to control
Type: cell-based
Details: not given

Compound | inhibition [%]
COc1c2c(cc3c1-c1c(cc4c(c1OC)OCO4)[C@H](OC(=O)c1ccccc1)[C@@](C)(O)[C@@H](C)C3)OCO2 | 71.8
C/C=C(/C)C(=O)O[C@H]1c2cc(OC)c(OC)c(OC)c2-c2c(cc3c(c2OC)OCO3)C[C@H](C)[C@@]1(C)O | 6.64
C/C=C(/C)C(=O)O[C@H]1c2cc3c(c(OC)c2-c2c(cc4c(c2OC)OCO4)C[C@H](C)[C@]1(C)O)OCO3 | 34.8
COc1cc2c(c(OC)c1OC)-c1c3cc4c(c1O[C@](C)([C@H](C)CO)C(=O)O[C@@H]2[C@@H](C)[C@@H](C)C3)OCO4 | 4.87
COc1cc2c(c(O)c1OC)-c1c(cc(OC)c(OC)c1OC)C[C@@H](C)[C@@H](C)C2 | 69
COc1cc2c(c(OC)c1OC)-c1c(cc(O)c(OC)c1OC)C[C@H](C)[C@H](C)[C@@H]2O | 49.2
C/C=C(\C)C(=O)O[C@H]1c2cc(OC)c(OC)c(OC)c2-c2c(cc(O)c(OC)c2OC)C[C@H](C)[C@]1(C)O | 43.2
COc1cc2c(c(OC)c1OC)-c1c(cc(O)c(OC)c1OC)C[C@H](C)[C@](C)(O)[C@@H]2OC(=O)c1ccccc1 | 27.9
COc1cc([C@@H]2c3cc(OC)c(O)cc3C(=O)[C@@H](C)[C@H]2C)ccc1O | 46.4

Tested on: HSC-T6
Test: Inhibition of NF-kappaB (unknown origin) expressed in TNFalpha-stimulated rat HSC-T6 cells assessed as reduction of HSC activation at 10 ug/ml treated 30 mins before TNFalpha stimulation measured after 6 hrs by bioluminescence based luciferase reporter gene assay relative to control
Type: cell-based
Details: Homo sapiens

Compound | inhibition [%]
SILYMARIN | 51.4

Tested on: not listed separately
Test: Cytotoxicity against rat HSC-T6 cells
Type: cell-based
Details: not given

Compound | Activity
COc1cc(C[C@@H](C)[C@@H](C)Cc2cc(O)c(OC)c(OC)c2)cc(O)c1OC [PREGOMISIN] | Toxic
COc1cc2c(c(OC)c1OC)-c1c(cc3c(c1OC)OCO3)C[C@H](C)[C@](C)(O)[C@H]2OC(=O)c1ccccc1 [GOMISIN C] | Toxic
